Measurements from ChEMBL document CHEMBL6109061, “Discovery of an Ultralong-acting Nondepolarizing Neuromuscular Blocker That Displays Short Onset Time and On-Demand Rapid Reversal by a Biocompatible Antagonist” (J Med Chem, 2025).
Activity calls are given as the source filed them. The rule behind the calls is not given here.

How the values were obtained:
[1] = Solubility of compound in water; type: physicochemical
[2] = system: Rattus norvegicus; test: Neuromuscular block activity in propofol-induced anesthetized Sprague-Dawley rat model assessed as inhibition of twitch by measuring twitch intensity of quadriceps muscle at 0.3 mg/kg, iv administered as bolus dose by TOF watch monitor analysis relative to control; type: functional
[3] = system: Rattus norvegicus; test: Neuromuscular block activity in propofol-induced anesthetized iv dosed Sprague-Dawley rat model assessed as minimum dose for complete neuromuscular block; type: functional; conditions: read-out: MED
[4] = system: Rattus norvegicus; test: Neuromuscular block activity in propofol-induced anesthetized Sprague-Dawley rat model assessed as reduction in twitch inhibition by measuring twitch intensity of quadriceps muscle at 0.3 mg/kg, iv administered as bolus dose by TOF watch monitor analysis; type: functional, organism-based
[5] = system: Rattus norvegicus; test: Neuromuscular block activity in propofol-induced anesthetized Sprague-Dawley rat model assessed as inhibition of twitch by measuring twitch intensity of quadriceps muscle at 0.04 mg/kg, iv administered as bolus dose by TOF watch monitor analysis relative to control; type: functional
[6] = system: Rattus norvegicus; test: Neuromuscular block activity in propofol-induced anesthetized Sprague-Dawley rat model assessed as onset time required for twitch reduction at 0.04 mg/kg, iv; type: functional
[7] = system: Rattus norvegicus; test: Neuromuscular block activity in propofol-induced anesthetized Sprague-Dawley rat model assessed as time duration of 0 to 25 percent recovery indices at 0.04 mg/kg, iv; type: functional
[8] = system: Rattus norvegicus; test: Neuromuscular block activity in propofol-induced anesthetized Sprague-Dawley rat model assessed as recovery time at 0.04 mg/kg, iv; type: functional
[9] = organism: Rattus norvegicus; test: Recovery of Pan-induced neuromuscular block in Sprague-Dawley rat assessed as […] ratio (TOFr) <= 25% by measuring recovery time; type: functional
[10] = system: Rattus norvegicus; test: Neuromuscular block activity in propofol-induced anesthetized Sprague-Dawley rat model assessed as inhibition of twitch by measuring twitch intensity of quadriceps muscle at 0.5 mg/kg, iv administered as bolus dose by TOF watch monitor analysis relative to control; type: functional
[11] = system: Rattus norvegicus; test: Neuromuscular block activity in propofol-induced anesthetized Sprague-Dawley rat model assessed as inhibition of twitch by measuring twitch intensity of quadriceps muscle at 5 mg/kg, iv administered as bolus dose by TOF watch monitor analysis relative to control; type: functional
[12] = system: Rattus norvegicus; test: Neuromuscular block activity in propofol-induced anesthetized Sprague-Dawley rat model assessed as inhibition of twitch by measuring twitch intensity of quadriceps muscle at 0.6 mg/kg, iv administered as bolus dose by TOF watch monitor analysis relative to control; type: functional

Structure (SMILES) | solubility [1] | inhibition in vivo at 0.3 mg/kg [2] | minimal effective dose [3] | inhibition in vivo at 0.04 mg/kg [5] | also measured
O=C(O)c1cc2cc(c1)Cn1cc[n+](c1)Cc1ccc(cc1)-c1ccc(cc1)C[n+]1ccn(c1)Cc1cc(cc(C(=O)O)c1)Cn1cc[n+](c1)Cc1ccc(cc1)-c1ccc(cc1)C[n+]1ccn(c1)C2.[Cl-].[Cl-].[Cl-].[Cl-] | ≥ 50 mM | 0% | 1.2 mg/kg | – | Activity [4]: inactive
Cc1n2cc[n+]1Cc1ccc(cc1)Oc1ccc(cc1)C[n+]1ccn(c1C)CCCCn1cc[n+](c1C)Cc1ccc(cc1)Oc1ccc(cc1)C[n+]1ccn(c1C)CCCC2.[Cl-].[Cl-].[Cl-].[Cl-] | ≥ 50 mM | – | – | 100% | Time [6]: 102 s; Time [7]: 47 min; Time [8]: 16 min
CCc1n2cc[n+]1Cc1ccc(cc1)Oc1ccc(cc1)C[n+]1ccn(c1CC)CCCCCn1cc[n+](c1CC)Cc1ccc(cc1)Oc1ccc(cc1)C[n+]1ccn(c1CC)CCCCC2.[Cl-].[Cl-].[Cl-].[Cl-] | ≥ 50 mM | – | – | 100% | Time [6]: 222 s; Time [8]: 13 min
[Cl-].[Cl-].[Cl-].[Cl-].c1ccc2c(c1)n1c[n+]2Cc2ccc(cc2)Oc2ccc(cc2)C[n+]2cn(c3ccccc32)CCCCCn2c[n+](c3ccccc32)Cc2ccc(cc2)Oc2ccc(cc2)C[n+]2cn(c3ccccc32)CCCCC1 | ~0.5 mM | – | – | 0% | Time [7]: 27 min
[Cl-].[Cl-].[Cl-].[Cl-].c1cc2ccc1Cc1ccc(cc1)C[n+]1ccn(c1)Cc1ccc(o1)Cn1cc[n+](c1)Cc1ccc(cc1)Cc1ccc(cc1)C[n+]1ccn(c1)Cc1ccc(o1)Cn1cc[n+](c1)C2 | ≥ 50 mM | 0% | 5 mg/kg | – | Activity [4]: inactive
COC(=O)c1cc2cc(c1)Cn1cc[n+](c1)Cc1ccc(cc1)Oc1ccc(cc1)C[n+]1ccn(c1)Cc1cc(cc(C(=O)OC)c1)Cn1cc[n+](c1)Cc1ccc(cc1)Oc1ccc(cc1)C[n+]1ccn(c1)C2.[Cl-].[Cl-].[Cl-].[Cl-] | ≥ 50 mM | 50% | 0.6 mg/kg | – | –
Cc1n2cc[n+]1Cc1ccc(cc1)Oc1ccc(cc1)C[n+]1ccn(c1C)CCCCCCCn1cc[n+](c1C)Cc1ccc(cc1)Oc1ccc(cc1)C[n+]1ccn(c1C)CCCCCCC2.[Cl-].[Cl-].[Cl-].[Cl-] | ≥ 50 mM | – | – | 100% | Time [6]: 498 s; Time [7]: 61 min; Time [8]: 18 min
Cc1n2cc[n+]1Cc1ccc(cc1)Oc1ccc(cc1)C[n+]1ccn(c1C)Cn1cc[n+](c1C)Cc1ccc(cc1)Oc1ccc(cc1)C[n+]1ccn(c1C)C2.[Cl-].[Cl-].[Cl-].[Cl-] | ≥ 50 mM | – | – | 63% | –
Cc1n2cc[n+]1Cc1ccc(cc1)Oc1ccc(cc1)C[n+]1ccn(c1C)Cc1cccc(c1)Cn1cc[n+](c1C)Cc1ccc(cc1)Oc1ccc(cc1)C[n+]1ccn(c1C)Cc1cccc(c1)C2.[Cl-].[Cl-].[Cl-].[Cl-] | ≥ 50 mM | 100% | 0.1 mg/kg | 54% | –
[Cl-].[Cl-].[Cl-].[Cl-].c1cc2ccc1Cn1cc[n+](c1)Cc1ccc(cc1)Oc1ccc(cc1)C[n+]1ccn(c1)Cc1ccc(cc1)Cn1cc[n+](c1)Cc1ccc(cc1)Oc1ccc(cc1)C[n+]1ccn(c1)C2 | ≥ 50 mM | 2% | 0.9 mg/kg | – | Time [9]: 30 min
[Cl-].[Cl-].[Cl-].[Cl-].c1cc2cc(c1)Cn1cc[n+](c1)Cc1ccc(cc1)Cc1ccc(cc1)C[n+]1ccn(c1)Cc1cccc(c1)Cn1cc[n+](c1)Cc1ccc(cc1)Cc1ccc(cc1)C[n+]1ccn(c1)C2 | ≥ 50 mM | 15% | 2 mg/kg | – | –
[Cl-].[Cl-].[Cl-].[Cl-].c1cc2ccc1Cn1cc[n+](c1)Cc1ccc(cc1)-c1ccc(cc1)C[n+]1ccn(c1)Cc1ccc(cc1)Cn1cc[n+](c1)Cc1ccc(cc1)-c1ccc(cc1)C[n+]1ccn(c1)C2 | ≥ 50 mM | 3% | 1.2 mg/kg | – | Time [9]: 36 min
Cc1n2cc[n+]1Cc1ccc(cc1)C[n+]1ccn(c1C)CCCn1cc[n+](c1C)Cc1ccc(cc1)C[n+]1ccn(c1C)CCC2 | – | – | – | 0% | inhibition in vivo at 0.5 mg/kg [10]: 0%; inhibition in vivo at 5 mg/kg [11]: 100%
[Cl-].[Cl-].[Cl-].[Cl-].c1cc2ccc1Cc1ccc(cc1)C[n+]1ccn(c1)Cc1ccc(cc1)Cn1cc[n+](c1)Cc1ccc(cc1)Cc1ccc(cc1)C[n+]1ccn(c1)Cc1ccc(cc1)Cn1cc[n+](c1)C2 | ≥ 50 mM | 17% | 1.8 mg/kg | – | Time [9]: 32 min
[Cl-].[Cl-].[Cl-].[Cl-].c1cc2cc(c1)Cn1cc[n+](c1)Cc1ccc(cc1)Oc1ccc(cc1)C[n+]1ccn(c1)Cc1cccc(c1)Cn1cc[n+](c1)Cc1ccc(cc1)Oc1ccc(cc1)C[n+]1ccn(c1)C2 | ≥ 50 mM | 100% | 0.16 mg/kg | – | –
O=C(O)c1cc2cc(c1)Cn1cc[n+](c1)Cc1ccc(cc1)Oc1ccc(cc1)C[n+]1ccn(c1)Cc1cc(cc(C(=O)O)c1)Cn1cc[n+](c1)Cc1ccc(cc1)Oc1ccc(cc1)C[n+]1ccn(c1)C2.[Cl-].[Cl-].[Cl-].[Cl-] | ≥ 50 mM | 0% | 1 mg/kg | – | Activity [4]: inactive
Cc1n2cc[n+]1Cc1cccc(c1)C[n+]1ccn(c1C)CCCn1cc[n+](c1C)Cc1cccc(c1)C[n+]1ccn(c1C)CCC2 | – | – | – | 0% | inhibition in vivo at 0.5 mg/kg [10]: 11%; inhibition in vivo at 5 mg/kg [11]: 100%
COC(=O)c1cc2cc(c1)Cn1cc[n+](c1)Cc1ccc(cc1)-c1ccc(cc1)C[n+]1ccn(c1)Cc1cc(cc(C(=O)OC)c1)Cn1cc[n+](c1)Cc1ccc(cc1)-c1ccc(cc1)C[n+]1ccn(c1)C2.[Cl-].[Cl-].[Cl-].[Cl-] | ≥ 50 mM | 5% | 1.5 mg/kg | – | –
c1c[n+]2ccc1CCCc1cc[n+](cc1)Cc1ccc(cc1)Oc1ccc(cc1)C[n+]1ccc(cc1)CCCc1cc[n+](cc1)Cc1ccc(cc1)Oc1ccc(cc1)C2 | – | 38% | – | 0% | inhibition in vivo at 0.6 mg/kg [12]: 100%
[Cl-].[Cl-].[Cl-].[Cl-].c1cc2cc(c1)Cn1cc[n+](c1)Cc1ccc(cc1)-c1ccc(cc1)C[n+]1ccn(c1)Cc1cccc(c1)Cn1cc[n+](c1)Cc1ccc(cc1)-c1ccc(cc1)C[n+]1ccn(c1)C2 | ≥ 50 mM | 43% | 0.6 mg/kg | – | –
Cc1n2cc[n+]1Cc1ccc(cc1)Oc1ccc(cc1)C[n+]1ccn(c1C)CCCCCn1cc[n+](c1C)Cc1ccc(cc1)Oc1ccc(cc1)C[n+]1ccn(c1C)CCCCC2.[Cl-].[Cl-].[Cl-].[Cl-] | ≥ 50 mM | – | – | 58% | –
[Cl-].[Cl-].[Cl-].[Cl-].c1cc2ccc1C[n+]1ccn(c1)CCCCCn1cc[n+](c1)Cc1ccc(cc1)Oc1ccc(cc1)C[n+]1ccn(c1)CCCCCn1cc[n+](c1)Cc1ccc(cc1)O2 | ≥ 50 mM | – | – | 100% | Time [6]: 138 s; Time [7]: 41 min; Time [8]: 31 min
